In brackets after ≈: the same amount, converted by molar mass. Each block holds one molecule with its values, some of them ahead of it.
Legend:
Experiment in all cases: ≥ marks a high value that may be exact or a test limit, other limits are often not marked, values filed in µg/mL are converted to µM
[1] = tested on: Acinetobacter baumannii 5821
[2] = tested on: Enterobacter cloacae 06-267
[3] = tested on: Enterobacter cloacae 14-262
Escherichia coli 09-240 = tested on: Escherichia coli 09-240
Escherichia coli 09-280 = tested on: Escherichia coli 09-280
Escherichia coli 170 = tested on: Escherichia coli 170
Escherichia coli 5509 = tested on: Escherichia coli 5509
[4] = tested on: Escherichia coli ATCC 25922
[5] = tested on: Klebsiella pneumoniae 01-239
[6] = tested on: Klebsiella pneumoniae 01-252
[7] = tested on: Pseudomonas aeruginosa 3599
[8] = tested on: Pseudomonas aeruginosa 5106
[9] = tested on: Pseudomonas aeruginosa ATCC 27853
[10] = tested on: Pseudomonas aeruginosa ATCC 9027
[11] = tested on: Staphylococcus aureus 01-001
[12] = tested on: Staphylococcus aureus 06-051
[13] = tested on: Staphylococcus aureus ATCC 29213
Bacillus megaterium F04 = tested on: Bacillus megaterium F04
[14] = tested on: Legionella bozemanae ATCC 33217
[15] = tested on: Legionella feeleii ATCC 35072
[16] = tested on: Legionella longbeachae ATCC 33484
[17] = tested on: Legionella micdadei ATCC 33218
[18] = tested on: Legionella oakridgensis ATCC 33761
[19] = tested on: Legionella pneumophila ATCC 33155
[20] = tested on: Legionella pneumophila ATCC 33215
[21] = tested on: Legionella pneumophila ATCC 33216
[22] = tested on: Legionella pneumophila Corby
[23] = tested on: Legionella pneumophila Lens
[24] = tested on: Legionella pneumophila Paris
[25] = tested on: Bacillus magaterium AB90008
[26] = tested on: Candida tropicalis AY91009
[27] = tested on: Enterobacter cloacae AB2010162
Enterococcus sp. S13 = tested on: Enterococcus sp. S13
[28] = tested on: Escherichia coli DH5alpha
[29] = tested on: Klebsiella oxytoca AB2010143
[30] = tested on: Micrococcus luteus AB2010179
Pseudomonas putida = tested on: Pseudomonas putida
[31] = tested on: Salmonella enterica AB2010185
[32] = tested on: Staphylococcus aureus 16472
[33] = tested on: Staphylococcus aureus AB94004
Bacillus megaterium Bm11 = tested on: Bacillus megaterium Bm11
[34] = tested on: Bacillus subtilis ATCC 6633
Escherichia coli D21 = tested on: Escherichia coli D21
[35] = tested on: Proteus vulgaris OX19 ATCC 6380
[36] = tested on: Pseudomonas aeruginosa OT97
[37] = tested on: Shigella flexneri ATCC 203
[38] = tested on: Staphylococcus aureus Cowan 1
[39] = tested on: Staphylococcus aureus JC-1

MIC [1]: ≥ 38 µM | MIC [2]: ≥ 32 µM | MIC [3]: ≥ 50 µM | MIC (Escherichia coli 09-240): ≥ 50 µM | MIC (Escherichia coli 09-280): ≥ 32 µM | MIC (Escherichia coli 170): ≥ 32 µM | MIC (Escherichia coli 5509): ≥ 32 µM | MIC [4]: 25 µM (≈ 38.7 µg/mL) | MIC [5]: ≥ 50 µM | MIC [6]: ≥ 32 µM | MIC [7]: ≥ 32 µM | MIC [8]: ≥ 32 µM | MIC [9]: > 32 µM | MIC [10]: 40 µM (≈ 61.9 µg/mL) | MIC [11]: ≥ 32 µM | MIC [12]: ≥ 32 µM | MIC [13]: 32 µM (≈ 49.5 µg/mL)
SMILES: CC[C@H](C)[C@H](NC(=O)[C@H](C)NC(=O)[C@H](CC(N)=O)NC(=O)[C@H](CCCCN)NC(=O)[C@@H](NC(=O)CNC(=O)[C@H](CCC(=O)O)NC(=O)[C@H](Cc1c[nH]c2ccccc12)NC(=O)[C@H](CC(C)C)NC(=O)[C@H](CCCCN)NC(=O)CNC(=O)[C@H](Cc1c[nH]c2ccccc12)NC(=O)[C@@H](N)Cc1ccccc1)C(C)C)C(N)=O [FWGKLWEGVKNAI]

MIC (Bacillus megaterium F04): 4.69 µM (≈ 12 µg/mL) | MIC [14]: 19.5 µM (≈ 50 µg/mL) | MIC [15]: 19.5 µM (≈ 50 µg/mL) | MIC [16]: 19.5 µM (≈ 50 µg/mL) | MIC [17]: 19.5 µM (≈ 50 µg/mL) | MIC [18]: 19.5 µM (≈ 50 µg/mL) | MIC [19]: 19.5 µM (≈ 50 µg/mL) | MIC [20]: 19.5 µM (≈ 50 µg/mL) | MIC [21]: 19.5 µM (≈ 50 µg/mL) | MIC [22]: 19.5 µM (≈ 50 µg/mL) | MIC [23]: 1.17 µM (≈ 3 µg/mL) | MIC [24]: 19.5 µM (≈ 50 µg/mL)
SMILES: CC[C@H](C)[C@H](NC(=O)[C@H](CC(C)C)NC(=O)[C@H](CC(=O)O)NC(=O)[C@@H](NC(=O)[C@@H](NC(=O)[C@H](Cc1ccccc1)NC(=O)[C@H](CCC(N)=O)NC(=O)[C@@H](N)CCSC)[C@@H](C)CC)[C@@H](C)O)C(=O)N[C@@H](CCCCN)C(=O)N[C@@H](CCCCN)C(=O)N[C@@H](C)C(=O)N[C@H](C(=O)N[C@@H](CC(=O)O)C(=O)N[C@@H](Cc1ccccc1)C(=O)N[C@@H](Cc1ccccc1)C(=O)N[C@@H](CCCCN)C(=O)NCC(=O)N[C@@H](CC(C)C)C(=O)N[C@@H](Cc1ccccc1)C(=O)NCC(=O)N[C@@H](CC(N)=O)C(=O)N[C@@H](CCCCN)C(=O)O)C(C)C [MQFITDLIKKAVDFFKGLFGNK]

MIC [25]: ≥ 32 µM | MIC [26]: 16 µM (≈ 24.8 µg/mL) | MIC [27]: ≥ 76 µM | MIC (Enterococcus sp. S13): 28 µM (≈ 43.3 µg/mL) | MIC [28]: ≥ 62 µM | MIC [29]: ≥ 87 µM | MIC [30]: ≥ 32 µM | MIC (Pseudomonas putida): ≥ 87 µM | MIC [31]: ≥ 72 µM | MIC [32]: 14 µM (≈ 21.7 µg/mL) | MIC [33]: 8 µM (≈ 12.4 µg/mL)
SMILES: CC[C@H](C)[C@H](NC(=O)CN)C(=O)N[C@@H](CC(C)C)C(=O)NCC(=O)N[C@@H](CCCCN)C(=O)N[C@@H](CC(C)C)C(=O)N[C@@H](Cc1c[nH]c2ccccc12)C(=O)N[C@@H](CCC(=O)O)C(=O)NCC(=O)N[C@@H](Cc1ccccc1)C(=O)N[C@@H](CCCCN)C(=O)N[C@@H](CO)C(=O)N[C@H](C(=O)N[C@H](C(=O)O)C(C)C)[C@@H](C)CC [GILGKLWEGFKSIV]

MIC (Bacillus megaterium Bm11): ≥ 800 µM | MIC [34]: ≥ 3200 µM | MIC (Escherichia coli D21): ≥ 3200 µM | MIC [35]: ≥ 6000 µM | MIC [36]: ≥ 6000 µM | MIC [37]: ≥ 6000 µM | MIC [38]: ≥ 6000 µM | MIC [39]: ≥ 1600 µM
SMILES: CC[C@H](C)[C@H](NC(=O)[C@H](CCCCN)NC(=O)[C@@H](NC(=O)[C@@H](NC(=O)[C@H](CCC(N)=O)NC(=O)CNC(=O)[C@H](Cc1cnc[nH]1)NC(=O)[C@H](CCC(N)=O)NC(=O)[C@@H](N)CC(N)=O)C(C)C)C(C)C)C(=O)N[C@@H](Cc1ccccc1)C(=O)N[C@@H](Cc1cnc[nH]1)C(=O)N[C@@H](Cc1cnc[nH]1)C(=O)O [NQHGQVVKIFHH]

From DBAASP
